Values quoted from earlier work, collected in patent US9579404B2, “Lanthanoid complex capsule and particle contrast agents, methods of making and using thereof” (New York University, priority 2011, dated 2017).

Conditions: in H2O at 9.4 T (400 MHz), 25° C.; from Siddiqui et al. 2009

For `O=C([O-])CN(CCN(CC(=O)[O-])CC(=O)[O-])CCN(CC(=O)[O-])CC(=O)[O-].[Gd+3]` [Gd[DTPA]^2−, gadolinium diethylenetriamine-N,N,N′,N″N″-pentaacetate], which “Relaxivity (r1) per Gd” value is on record?
The value was 4.6^a s^−1mM^−1.
